Data: ChEMBL document CHEMBL4831500, “Discovery of first-in-class imidazothiazole-based potent and selective ErbB4 (HER4) kinase inhibitors” (Eur J Med Chem, 2021)
pIC50: −log10 of the molar value.

Legend:
[1] = system: Panel NCI-60 (60 carcinoma cell lines); assay: Growth inhibition of human panel NCI-60 (60 carcinoma cells) assessed as growth percent at 10 uM measured after 48 hrs by SRB assay relative to control; assay type: functional; details: read-out: Activity
NCI-H522 = assay: Antiproliferative activity against human NCI-H522 cells assessed as cell growth inhibition measured after 48 hrs by SRB assay; assay type: functional, cell-based; details: NCI-H522, 48 h
HCC 2998 = assay: Antiproliferative activity against human HCC 2998 cells assessed as cell growth inhibition measured after 48 hrs by SRB assay; assay type: functional, cell-based; details: HCC 2998, 48 h
SK-MEL-5 = assay: Antiproliferative activity against human SK-MEL-5 cells assessed as cell growth inhibition measured after 48 hrs by SRB assay; assay type: functional, cell-based; details: SK-MEL-5, 48 h
OVCAR-4 [2] = assay: Antiproliferative activity against human OVCAR-4 cells assessed as cell growth inhibition measured after 48 hrs by SRB assay; assay type: functional, cell-based; details: OVCAR-4, 48 h
UO-31 [3] = assay: Antiproliferative activity against human UO-31 cells assessed as cell growth inhibition measured after 48 hrs by SRB assay; assay type: functional, cell-based; details: UO-31, 48 h
DU-145 [4] = assay: Antiproliferative activity against human DU-145 cells assessed as cell growth inhibition measured after 48 hrs by SRB assay; assay type: functional, cell-based; details: DU-145, 48 h
MDA-MB-468 [5] = assay: Antiproliferative activity against human MDA-MB-468 cells assessed as cell growth inhibition measured after 48 hrs by SRB assay; assay type: functional, cell-based; details: MDA-MB-468, 48 h
WI-38 = assay: Cytotoxicity against human WI-38 cells assessed as cell growth inhibition measured after 48 hrs by SRB assay; assay type: cell-based; details: WI-38, 48 h
MOLT-4 = assay: Antiproliferative activity against human MOLT-4 cells assessed as cell growth inhibition at 10 uM measured after 48 hrs by SRB assay relative to control; assay type: functional
OVCAR-4 [6] = assay: Antiproliferative activity against human OVCAR-4 cells assessed as cell growth inhibition at 10 uM measured after 48 hrs by SRB assay relative to control; assay type: functional
UO-31 [7] = assay: Antiproliferative activity against human UO-31 cells assessed as cell growth inhibition at 10 uM measured after 48 hrs by SRB assay relative to control; assay type: functional
DU-145 [8] = assay: Antiproliferative activity against human DU-145 cells assessed as cell growth inhibition at 10 uM measured after 48 hrs by SRB assay relative to control; assay type: functional
MDA-MB-468 [9] = assay: Antiproliferative activity against human MDA-MB-468 cells assessed as cell growth inhibition at 10 uM measured after 48 hrs by SRB assay relative to control; assay type: functional
[10] = Cytotoxicity against human WI-38 cells assessed as cell growth inhibition at 10 uM measured after 48 hrs by SRB assay relative to control; assay type: cell-based
[11] = target: Serine/threonine-protein kinase B-raf (Homo sapiens, UniProt P15056); assay: Inhibition of wild type B-RAF (unknown origin) at 10 uM incubated for 40 mins in presence of Mg/ATP mix by [gamma p33]-ATP based scintillation counting method relative to control
[12] = target: Epidermal growth factor receptor (Homo sapiens, UniProt P00533); assay: Inhibition of EGFR (unknown origin) at 10 uM incubated for 40 mins in presence of Mg/ATP mix by [gamma p33]-ATP based scintillation counting method relative to control
[13] = target: Vascular endothelial growth factor receptor 2 (Homo sapiens, UniProt P35968); assay: Inhibition of KDR (unknown origin) at 10 uM incubated for 40 mins in presence of Mg/ATP mix by [gamma p33]-ATP based scintillation counting method relative to control
[14] = system: Serine/threonine-protein kinase B-raf (Homo sapiens), P15056 [V600E]; assay: Inhibition of BRAF V600E mutant (unknown origin) at 10 uM incubated for 40 mins in presence of Mg/ATP mix by [gamma p33]-ATP based scintillation counting method relative to control
[15] = target: T1, Mitogen-activated protein kinase 10 (Homo sapiens, UniProt P53779); assay: Inhibition of JNK3 (unknown origin) at 10 uM incubated for 40 mins in presence of Mg/ATP mix by [gamma p33]-ATP based scintillation counting method relative to control
[16] = target: T2, Receptor tyrosine-protein kinase erbB-4 (Homo sapiens, UniProt Q15303); assay: Inhibition of ErbB4 (unknown origin) incubated for 40 mins in presence of Mg/ATP mix by [gamma p33]-ATP based scintillation counting method
[17] = target: Tyrosine-protein kinase JAK3 (Homo sapiens, UniProt P52333); assay: Inhibition of JAK3 (unknown origin) incubated for 40 mins in presence of Mg/ATP mix by [gamma p33]-ATP based scintillation counting method
[18] = target: T1, Mitogen-activated protein kinase 10; assay: Inhibition of JNK3 (unknown origin) incubated for 40 mins in presence of Mg/ATP mix by [gamma p33]-ATP based scintillation counting method
Homo sapiens [19] = organism: Homo sapiens; assay: Selectivity ratio of IC50 for inhibition of JAK3 (unknown origin) to IC50 for inhibition of ErbB4 (unknown origin); details: dose 10.0 µM, time 40.0 min
Homo sapiens [20] = organism: Homo sapiens; assay: Selectivity ratio of IC50 for inhibition of JNK3 (unknown origin) to IC50 for inhibition of ErbB4 (unknown origin); details: dose 10.0 µM, time 40.0 min
Homo sapiens [21] = organism: Homo sapiens; assay: Selectivity index, ratio of IC50 for inhibition of BRAF V600E mutant (unknown origin) to IC50 for inhibition of ErbB4 (unknown origin); details: dose 10.0 µM, time 40.0 min
[22] = target: T2, Receptor tyrosine-protein kinase erbB-4; assay: Potency index, ratio of staurosporine IC50 to test compound IC50 for inhibition of ErbB4 (unknown origin) at 10 uM incubated for 40 mins in presence of Mg/ATP mix by [gamma p33]-ATP based scintillation counting method
T47D = assay: Antiproliferative activity against human T47D cells assessed as cell growth inhibition measured after 48 hrs by SRB assay; assay type: functional, cell-based
[23] = target: T2, Receptor tyrosine-protein kinase erbB-4; assay: Inhibition of ErbB4 expressed in human T47D cells at antiproliferative IC50 in presence of -neuregulin 1 incubated for 90 mins by sandwich ELISA relative to control; assay type: cell-based
[24] = target: Voltage-gated inwardly rectifying potassium channel KCNH2 (Homo sapiens, UniProt Q12809); assay: Inhibition of human ERG incubated for 3 hrs by competitive fluorescence tracer binding based assay
Cytochrome P450 2D6 = Cytochrome P450 2D6 (Homo sapiens, UniProt P10635); assay: Inhibition of CYP2D6 (unknown origin) using EOMCC as a substrate incubated for 20 mins by fluorescence based analysis; assay type: ADME
Cytochrome P450 3A4 = Cytochrome P450 3A4 (Homo sapiens, UniProt P08684); assay: Inhibition of CYP3A4 (unknown origin) using BOMCC as a substrate incubated for 20 mins by fluorescence based analysis; assay type: ADME
CYP3A4 = CYP3A4 (Homo sapiens, UniProt P08684); assay: Potency index, ratio of test compound IC50 to ketoconazole IC50 for inhibition of CYP3A4 (unknown origin) using BOMCC as a substrate incubated for 20 mins by fluorescence based analysis; assay type: ADME; details: probe BOMCC
[25] = target: Serine/threonine-protein kinase B-raf (Homo sapiens, UniProt P15056, V600E); assay: Inhibition of BRAF V600E mutant (unknown origin) incubated for 40 mins in presence of Mg/ATP mix by [gamma p33]-ATP based scintillation counting method

T2 sequence (Q15303 whole entry): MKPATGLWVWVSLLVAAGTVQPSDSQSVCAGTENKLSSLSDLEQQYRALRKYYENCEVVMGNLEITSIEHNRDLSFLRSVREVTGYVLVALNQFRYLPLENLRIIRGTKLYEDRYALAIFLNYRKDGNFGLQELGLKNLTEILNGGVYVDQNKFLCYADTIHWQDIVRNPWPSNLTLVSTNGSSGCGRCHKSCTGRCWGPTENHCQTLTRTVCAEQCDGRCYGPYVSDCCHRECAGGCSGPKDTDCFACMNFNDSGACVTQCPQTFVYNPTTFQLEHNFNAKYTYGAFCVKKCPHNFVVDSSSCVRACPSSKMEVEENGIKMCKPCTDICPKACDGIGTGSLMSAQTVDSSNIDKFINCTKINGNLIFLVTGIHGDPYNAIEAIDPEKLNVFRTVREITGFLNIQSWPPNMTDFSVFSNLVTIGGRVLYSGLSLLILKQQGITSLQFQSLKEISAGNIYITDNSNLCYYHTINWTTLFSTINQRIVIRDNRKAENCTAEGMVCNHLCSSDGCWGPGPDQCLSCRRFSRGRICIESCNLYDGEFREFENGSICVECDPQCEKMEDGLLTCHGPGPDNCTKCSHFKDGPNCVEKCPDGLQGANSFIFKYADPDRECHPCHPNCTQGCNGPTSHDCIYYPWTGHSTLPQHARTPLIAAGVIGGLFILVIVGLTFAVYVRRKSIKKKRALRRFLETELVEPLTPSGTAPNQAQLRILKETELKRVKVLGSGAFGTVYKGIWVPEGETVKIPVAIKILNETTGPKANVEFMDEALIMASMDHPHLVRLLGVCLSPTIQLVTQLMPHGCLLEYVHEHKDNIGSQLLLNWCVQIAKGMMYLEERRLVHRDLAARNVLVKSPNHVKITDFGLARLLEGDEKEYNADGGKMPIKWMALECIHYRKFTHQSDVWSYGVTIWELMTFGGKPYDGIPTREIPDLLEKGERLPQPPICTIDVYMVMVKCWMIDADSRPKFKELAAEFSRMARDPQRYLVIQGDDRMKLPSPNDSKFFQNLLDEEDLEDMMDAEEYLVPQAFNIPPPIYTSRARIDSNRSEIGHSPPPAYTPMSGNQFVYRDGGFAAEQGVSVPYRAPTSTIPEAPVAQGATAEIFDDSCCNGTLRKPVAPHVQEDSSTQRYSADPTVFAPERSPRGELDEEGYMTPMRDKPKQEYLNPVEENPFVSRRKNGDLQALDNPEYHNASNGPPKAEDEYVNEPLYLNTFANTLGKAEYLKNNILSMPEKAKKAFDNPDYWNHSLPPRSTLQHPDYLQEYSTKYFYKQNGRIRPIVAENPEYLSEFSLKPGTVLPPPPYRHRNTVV
T1 sequence (P53779 whole entry): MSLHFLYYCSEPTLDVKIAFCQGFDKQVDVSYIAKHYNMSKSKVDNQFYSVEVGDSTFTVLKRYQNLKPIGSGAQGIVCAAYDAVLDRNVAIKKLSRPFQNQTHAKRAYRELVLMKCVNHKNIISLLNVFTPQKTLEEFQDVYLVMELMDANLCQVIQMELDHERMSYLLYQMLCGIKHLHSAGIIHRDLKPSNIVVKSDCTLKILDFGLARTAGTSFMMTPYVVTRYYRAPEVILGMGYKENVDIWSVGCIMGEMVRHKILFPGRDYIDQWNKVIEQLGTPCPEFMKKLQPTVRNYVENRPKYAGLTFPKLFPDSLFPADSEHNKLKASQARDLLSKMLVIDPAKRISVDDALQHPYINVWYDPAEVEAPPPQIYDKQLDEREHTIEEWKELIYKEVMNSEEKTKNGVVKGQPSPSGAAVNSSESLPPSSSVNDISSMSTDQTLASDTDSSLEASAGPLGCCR
Chain of Voltage-gated inwardly rectifying potassium channel KCNH2 (Q12809 whole entry): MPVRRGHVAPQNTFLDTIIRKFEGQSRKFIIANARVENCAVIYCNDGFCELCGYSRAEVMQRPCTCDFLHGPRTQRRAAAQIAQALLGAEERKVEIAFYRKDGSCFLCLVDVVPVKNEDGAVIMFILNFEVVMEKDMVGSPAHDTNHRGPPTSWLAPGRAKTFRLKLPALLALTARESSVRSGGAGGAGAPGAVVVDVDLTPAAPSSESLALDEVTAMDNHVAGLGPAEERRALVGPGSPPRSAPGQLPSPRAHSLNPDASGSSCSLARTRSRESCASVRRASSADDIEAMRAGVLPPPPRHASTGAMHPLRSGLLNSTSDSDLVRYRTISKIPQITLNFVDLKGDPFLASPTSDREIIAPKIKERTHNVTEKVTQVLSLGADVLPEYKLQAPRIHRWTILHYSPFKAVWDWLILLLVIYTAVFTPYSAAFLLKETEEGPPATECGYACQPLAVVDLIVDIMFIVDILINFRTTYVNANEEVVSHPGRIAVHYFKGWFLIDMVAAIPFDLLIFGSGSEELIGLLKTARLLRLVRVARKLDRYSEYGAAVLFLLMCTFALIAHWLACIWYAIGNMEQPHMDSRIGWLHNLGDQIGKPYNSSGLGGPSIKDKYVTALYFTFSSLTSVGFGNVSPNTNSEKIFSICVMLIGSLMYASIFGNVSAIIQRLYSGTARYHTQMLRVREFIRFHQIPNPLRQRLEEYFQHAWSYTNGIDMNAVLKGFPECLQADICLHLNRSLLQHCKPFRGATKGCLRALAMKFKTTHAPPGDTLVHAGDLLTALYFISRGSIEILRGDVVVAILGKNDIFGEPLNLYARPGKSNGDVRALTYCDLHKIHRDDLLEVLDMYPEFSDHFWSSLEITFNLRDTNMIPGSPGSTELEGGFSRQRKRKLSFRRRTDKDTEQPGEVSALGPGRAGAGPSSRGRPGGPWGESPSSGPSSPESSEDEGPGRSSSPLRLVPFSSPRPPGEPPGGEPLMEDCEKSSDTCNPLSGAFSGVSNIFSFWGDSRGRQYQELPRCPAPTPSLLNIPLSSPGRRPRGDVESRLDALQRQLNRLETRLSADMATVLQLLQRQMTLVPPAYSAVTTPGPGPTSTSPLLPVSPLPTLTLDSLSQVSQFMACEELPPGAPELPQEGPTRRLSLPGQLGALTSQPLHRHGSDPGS
Chain of Cytochrome P450 3A4 (P08684 whole entry): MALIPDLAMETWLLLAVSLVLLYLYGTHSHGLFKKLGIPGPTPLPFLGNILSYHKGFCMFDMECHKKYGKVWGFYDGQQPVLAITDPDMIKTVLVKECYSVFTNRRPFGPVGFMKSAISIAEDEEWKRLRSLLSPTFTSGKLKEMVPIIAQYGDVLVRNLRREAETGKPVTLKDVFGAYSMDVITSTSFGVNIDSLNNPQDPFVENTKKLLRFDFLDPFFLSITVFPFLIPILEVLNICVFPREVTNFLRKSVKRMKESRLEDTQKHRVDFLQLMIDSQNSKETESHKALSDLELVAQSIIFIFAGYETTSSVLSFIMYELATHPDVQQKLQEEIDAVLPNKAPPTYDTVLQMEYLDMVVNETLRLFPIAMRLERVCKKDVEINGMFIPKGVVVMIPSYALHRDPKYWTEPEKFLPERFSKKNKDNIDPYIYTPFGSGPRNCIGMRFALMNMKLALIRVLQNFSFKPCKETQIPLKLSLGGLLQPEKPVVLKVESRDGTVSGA
Chain of CYP3A4 (P08684 whole entry): as above
Chain of Vascular endothelial growth factor receptor 2 (P35968 whole entry): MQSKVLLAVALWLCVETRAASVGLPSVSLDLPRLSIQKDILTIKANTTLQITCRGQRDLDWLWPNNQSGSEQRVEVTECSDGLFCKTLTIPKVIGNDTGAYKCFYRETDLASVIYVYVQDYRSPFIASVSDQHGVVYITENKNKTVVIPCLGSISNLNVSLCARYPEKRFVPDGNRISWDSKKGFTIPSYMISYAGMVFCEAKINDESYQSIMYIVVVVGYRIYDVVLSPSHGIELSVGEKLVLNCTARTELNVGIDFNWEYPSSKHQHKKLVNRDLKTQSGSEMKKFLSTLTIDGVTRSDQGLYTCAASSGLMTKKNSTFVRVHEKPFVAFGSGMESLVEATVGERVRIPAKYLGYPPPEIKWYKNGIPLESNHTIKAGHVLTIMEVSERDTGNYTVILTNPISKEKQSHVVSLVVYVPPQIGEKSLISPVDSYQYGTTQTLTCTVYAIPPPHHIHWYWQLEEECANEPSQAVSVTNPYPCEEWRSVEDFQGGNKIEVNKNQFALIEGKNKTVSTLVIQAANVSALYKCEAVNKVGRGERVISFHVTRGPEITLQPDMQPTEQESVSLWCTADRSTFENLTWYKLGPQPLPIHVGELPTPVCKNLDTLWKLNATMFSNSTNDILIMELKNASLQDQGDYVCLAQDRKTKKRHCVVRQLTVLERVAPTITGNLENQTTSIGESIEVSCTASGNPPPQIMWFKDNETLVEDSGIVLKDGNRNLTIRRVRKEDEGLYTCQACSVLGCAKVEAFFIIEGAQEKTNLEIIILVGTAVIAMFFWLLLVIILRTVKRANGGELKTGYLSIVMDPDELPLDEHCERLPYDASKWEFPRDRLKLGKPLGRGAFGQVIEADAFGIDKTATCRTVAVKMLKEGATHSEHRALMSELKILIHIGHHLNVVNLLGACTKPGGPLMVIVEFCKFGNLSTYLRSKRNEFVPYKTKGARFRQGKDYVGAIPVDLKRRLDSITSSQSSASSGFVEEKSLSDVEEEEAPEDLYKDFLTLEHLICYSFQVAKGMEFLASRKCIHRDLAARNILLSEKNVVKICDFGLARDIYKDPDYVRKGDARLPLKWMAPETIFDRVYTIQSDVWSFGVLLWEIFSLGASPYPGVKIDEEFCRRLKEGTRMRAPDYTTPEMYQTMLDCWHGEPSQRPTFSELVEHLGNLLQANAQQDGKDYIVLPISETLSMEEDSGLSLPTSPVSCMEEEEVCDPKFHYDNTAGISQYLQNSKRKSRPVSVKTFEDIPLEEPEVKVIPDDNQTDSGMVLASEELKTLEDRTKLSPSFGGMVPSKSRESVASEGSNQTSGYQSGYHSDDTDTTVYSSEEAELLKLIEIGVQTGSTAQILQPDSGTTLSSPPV

pIC50 (NCI-H522): 5.31
pIC50 (HCC 2998): 5.75
pIC50 (SK-MEL-5): 6.29
pIC50 (OVCAR-4 [2]): 5.42
pIC50 (DU-145 [4]): 5.78
pIC50 (MDA-MB-468 [5]): 5.98
inhibition [11]: 34.3%
inhibition [12]: 63.6%
inhibition [13]: 24.8%
inhibition [14]: 62.1%
inhibition [15]: 66%
pIC50 [16]: 7.82
pIC50 [17]: 5.08
pIC50 [18]: 5.28
Ratio IC50 (Homo sapiens [19]): 548
Ratio IC50 (Homo sapiens [20]): 341
Ratio IC50 (Homo sapiens [21]): 866
Ratio IC50 [22]: 9
pIC50 (T47D): 5.39
inhibition [23]: > 50%
pIC50 (Cytochrome P450 2D6): < 4.05
pIC50 (Cytochrome P450 3A4): 4.75
pIC50 [25]: 4.88
Compound: CS(=O)(=O)c1nccc(-c2c(-c3cccc(OCc4ccccc4)c3)nc3sccn23)n1
growth at 10 µM [1]: 63.4%
pIC50 (UO-31 [3]): 5.81
pIC50 (WI-38): 5.07
inhibition at 10 µM (MOLT-4): 73.5%
inhibition at 10 µM (OVCAR-4 [6]): 26.2%
inhibition at 10 µM (UO-31 [7]): 96.3%
inhibition at 10 µM (DU-145 [8]): 160%
inhibition at 10 µM (MDA-MB-468 [9]): 165%
inhibition at 48 h, 10 µM [10]: 56.4%
pIC50 [24]: 4.91
selectivity ratio at 20 min (CYP3A4): 7480
